US20250214991A1 (Oncopia Therapeutics, Inc. d/b/a/ SK Life Science Labs, priority 2022, published 2025)

Legend:
CRBN/DDB1 = CRBN/DDB1 (Homo sapiens (Human), UniProt Q96SW2); experiment: IC50 measurements for binding to CRBN/DDB1 (HTRF); settings: His tagged CRBN+DDB, Cy5-labeled Thalidomide probe, one hour
Summary of the method: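 HTRF competition binding with 2 nM His-tagged CRBN-DDB1 complex, 60 nM Cy5-thalidomide probe and 0.4 nM anti-His Tb cryptate in 50 mM HEPES pH 7.5, 1 mM TCEP, 0.01% Brij-35, 50 mM NaCl, 0.1% BSA. Read after 1 h at room temperature; IC50 from four-parameter dose-response fit.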

IKZF2 = IKZF2 (Homo sapiens (Human), UniProt Q96SW2+Q9UKS7); experiment: In vitro IKZF2 HiBit Assay (HEK293T Flp-in-HiBiT cells); assay type: cell-based; settings: HEK293T Flp-in-HiBiT cells, 6 hrs incubation; for DC50: read-out: IKZF2 HiBit DC50; for Dmax: HEK-293T, read-out: IKZF2 HiBit Dmax (%)
IKZF2, sequence (Q9UKS7 whole entry): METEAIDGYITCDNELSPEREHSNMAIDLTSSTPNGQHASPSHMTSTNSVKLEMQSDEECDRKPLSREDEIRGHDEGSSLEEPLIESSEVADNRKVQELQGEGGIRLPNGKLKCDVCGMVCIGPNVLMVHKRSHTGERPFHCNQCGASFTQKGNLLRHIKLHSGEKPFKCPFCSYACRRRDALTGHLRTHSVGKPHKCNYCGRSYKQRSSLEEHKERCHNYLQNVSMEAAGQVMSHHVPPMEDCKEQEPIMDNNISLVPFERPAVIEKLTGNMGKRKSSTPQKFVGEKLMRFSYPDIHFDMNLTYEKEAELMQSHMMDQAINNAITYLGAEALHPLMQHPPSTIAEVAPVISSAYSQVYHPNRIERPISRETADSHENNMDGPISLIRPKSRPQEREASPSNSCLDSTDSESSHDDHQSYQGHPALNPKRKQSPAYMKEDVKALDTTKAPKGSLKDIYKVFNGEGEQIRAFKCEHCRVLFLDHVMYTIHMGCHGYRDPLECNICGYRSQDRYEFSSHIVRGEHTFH
IKZF2, sequence (Q96SW2 whole entry): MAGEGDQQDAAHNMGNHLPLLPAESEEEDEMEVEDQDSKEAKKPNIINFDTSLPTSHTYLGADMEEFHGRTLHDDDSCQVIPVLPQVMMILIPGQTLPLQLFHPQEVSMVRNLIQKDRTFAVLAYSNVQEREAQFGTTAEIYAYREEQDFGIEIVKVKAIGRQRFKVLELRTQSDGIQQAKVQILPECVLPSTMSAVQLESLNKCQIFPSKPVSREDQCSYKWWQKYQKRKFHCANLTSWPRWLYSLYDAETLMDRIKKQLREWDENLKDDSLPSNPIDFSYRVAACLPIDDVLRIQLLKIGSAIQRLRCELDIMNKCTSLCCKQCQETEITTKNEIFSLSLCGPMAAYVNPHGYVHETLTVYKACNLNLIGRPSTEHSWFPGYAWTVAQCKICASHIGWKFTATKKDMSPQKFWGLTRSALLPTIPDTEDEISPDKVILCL
IKZF2, sequence (Q16531 2-1140 partner): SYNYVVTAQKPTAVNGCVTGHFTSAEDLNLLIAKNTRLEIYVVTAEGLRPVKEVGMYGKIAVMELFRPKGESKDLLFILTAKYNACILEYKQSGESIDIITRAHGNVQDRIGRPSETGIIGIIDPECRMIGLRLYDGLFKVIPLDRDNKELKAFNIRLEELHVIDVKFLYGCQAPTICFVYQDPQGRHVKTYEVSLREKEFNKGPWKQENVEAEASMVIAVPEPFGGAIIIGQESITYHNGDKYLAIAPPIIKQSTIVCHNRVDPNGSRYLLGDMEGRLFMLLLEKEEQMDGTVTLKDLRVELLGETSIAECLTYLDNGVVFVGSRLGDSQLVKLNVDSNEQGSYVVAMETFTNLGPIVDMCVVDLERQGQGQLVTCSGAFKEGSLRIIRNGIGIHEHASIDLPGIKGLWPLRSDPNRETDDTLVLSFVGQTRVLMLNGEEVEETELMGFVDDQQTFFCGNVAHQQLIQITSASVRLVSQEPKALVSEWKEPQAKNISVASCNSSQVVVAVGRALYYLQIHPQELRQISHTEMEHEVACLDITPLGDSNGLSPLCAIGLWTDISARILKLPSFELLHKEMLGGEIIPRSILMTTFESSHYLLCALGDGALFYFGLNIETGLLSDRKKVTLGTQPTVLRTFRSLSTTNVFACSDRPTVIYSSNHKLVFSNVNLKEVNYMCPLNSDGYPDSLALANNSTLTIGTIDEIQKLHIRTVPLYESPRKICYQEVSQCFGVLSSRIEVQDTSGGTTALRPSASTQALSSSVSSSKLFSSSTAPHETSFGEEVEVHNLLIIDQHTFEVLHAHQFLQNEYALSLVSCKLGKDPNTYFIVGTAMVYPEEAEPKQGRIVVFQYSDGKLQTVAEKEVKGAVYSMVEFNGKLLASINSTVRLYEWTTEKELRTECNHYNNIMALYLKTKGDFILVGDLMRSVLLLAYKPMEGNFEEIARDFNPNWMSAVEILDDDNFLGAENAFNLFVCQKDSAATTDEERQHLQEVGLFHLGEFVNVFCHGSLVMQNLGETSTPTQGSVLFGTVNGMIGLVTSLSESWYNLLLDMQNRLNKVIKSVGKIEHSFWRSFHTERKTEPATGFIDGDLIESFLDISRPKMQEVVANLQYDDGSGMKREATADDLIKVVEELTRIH
Summary of the method: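 HEK293T Flp-in cells carrying an endogenous N-terminal HiBiT tag on IKZF2 were exposed to compound for 6 h at 0.1% DMSO. The dilution series was 11 doses at 3-fold, diluted from 1 mM. Nano-Glo HiBiT lytic luminescence, normalized to DMSO, gave DC50 for 50% degradation and Dmax across the concentration range, both reported in letter bins.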

IKZF1 = IKZF1 (Homo sapiens (Human), UniProt Q13422+Q96SW2); experiment: In vitro IKZF1 HiBit Assay (HEK293T Flp-in-HiBiT-IKZF1 stable cell line); assay type: cell-based; settings: HEK293T Flp-in-HiBiT-IKZF1 stable cell line, 6 hrs incubation; for DC50: read-out: IKZF1 HiBit DC50; for Dmax: HEK-293T, read-out: IKZF1 HiBit Dmax (%)
IKZF1, sequence (Q13422 whole entry): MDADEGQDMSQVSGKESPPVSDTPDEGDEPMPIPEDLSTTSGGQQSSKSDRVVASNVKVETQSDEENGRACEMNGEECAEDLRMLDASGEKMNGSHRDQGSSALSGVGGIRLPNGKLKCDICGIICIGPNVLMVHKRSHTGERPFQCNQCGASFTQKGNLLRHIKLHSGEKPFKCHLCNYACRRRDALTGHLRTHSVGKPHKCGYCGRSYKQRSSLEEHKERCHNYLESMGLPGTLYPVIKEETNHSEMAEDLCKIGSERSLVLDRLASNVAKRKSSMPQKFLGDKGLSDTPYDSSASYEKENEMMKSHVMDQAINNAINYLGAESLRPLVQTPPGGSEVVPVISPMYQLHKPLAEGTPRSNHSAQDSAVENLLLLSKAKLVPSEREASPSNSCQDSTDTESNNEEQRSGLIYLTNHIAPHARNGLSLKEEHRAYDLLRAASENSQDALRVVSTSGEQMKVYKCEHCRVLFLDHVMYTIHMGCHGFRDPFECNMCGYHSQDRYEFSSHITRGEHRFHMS
IKZF1, sequence (Q96SW2 whole entry): as the sequence (Q96SW2 whole entry) above
IKZF1, sequence (Q16531 2-1140 partner): as the sequence (Q16531 2-1140 partner) above
Summary of the method: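 HEK293T Flp-in cells carrying N-terminal HiBiT-tagged IKZF1 were exposed to compound (0.1% DMSO) for 6 h at 3000 cells/well. HiBiT luminescence was read after lytic LgBiT detection. DC50 and Dmax were taken from DMSO-normalized dose-response curves.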

CRBN/DDB1, sequence (Q96SW2 whole entry, species assumed): as the sequence (Q96SW2 whole entry) above
CRBN/DDB1, sequence (Q16531 whole entry partner, species assumed): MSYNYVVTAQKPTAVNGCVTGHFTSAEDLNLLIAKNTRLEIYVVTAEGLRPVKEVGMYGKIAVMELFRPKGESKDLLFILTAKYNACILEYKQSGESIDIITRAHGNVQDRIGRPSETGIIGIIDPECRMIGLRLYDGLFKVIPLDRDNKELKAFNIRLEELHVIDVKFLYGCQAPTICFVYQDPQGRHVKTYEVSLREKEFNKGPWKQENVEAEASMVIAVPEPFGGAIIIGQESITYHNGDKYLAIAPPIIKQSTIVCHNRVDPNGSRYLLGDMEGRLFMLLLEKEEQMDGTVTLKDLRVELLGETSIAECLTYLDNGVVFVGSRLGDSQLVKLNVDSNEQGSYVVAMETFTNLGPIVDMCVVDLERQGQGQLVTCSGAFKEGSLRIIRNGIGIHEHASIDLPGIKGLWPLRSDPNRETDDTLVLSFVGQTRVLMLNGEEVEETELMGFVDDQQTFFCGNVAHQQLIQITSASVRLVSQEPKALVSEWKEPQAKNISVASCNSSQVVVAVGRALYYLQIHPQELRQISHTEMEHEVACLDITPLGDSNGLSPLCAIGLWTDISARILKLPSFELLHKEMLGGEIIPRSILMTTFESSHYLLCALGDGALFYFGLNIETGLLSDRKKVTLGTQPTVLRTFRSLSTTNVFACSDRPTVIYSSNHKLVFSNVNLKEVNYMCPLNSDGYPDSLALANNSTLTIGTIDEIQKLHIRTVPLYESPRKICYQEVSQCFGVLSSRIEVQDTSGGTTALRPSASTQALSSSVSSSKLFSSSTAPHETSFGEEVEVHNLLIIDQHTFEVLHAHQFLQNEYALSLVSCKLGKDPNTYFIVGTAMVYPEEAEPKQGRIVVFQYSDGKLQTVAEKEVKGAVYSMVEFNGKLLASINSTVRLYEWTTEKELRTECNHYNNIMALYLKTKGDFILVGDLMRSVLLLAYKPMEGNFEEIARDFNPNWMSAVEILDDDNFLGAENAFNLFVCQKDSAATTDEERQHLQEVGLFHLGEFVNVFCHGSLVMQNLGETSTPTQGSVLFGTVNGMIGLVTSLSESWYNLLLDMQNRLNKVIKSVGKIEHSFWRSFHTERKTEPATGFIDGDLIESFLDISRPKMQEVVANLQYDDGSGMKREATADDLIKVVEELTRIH

Compound | IC50 (CRBN/DDB1) [nM] | DC50 (IKZF2) [nM] | Dmax (IKZF2) [%] | DC50 (IKZF1) [nM] | Dmax (IKZF1) [%]
O=C1CCC(N2Cc3cc(-c4cc(CN5CCCC5)c5ccn(CCO)c5n4)ccc3C2=O)C(=O)N1 (stereo not shown) [Example 131, 3-(5-(1-(2-hydroxyethyl)-4-(pyrrolidin-1-ylmethyl)-1H-pyrrolo[2,3-b]pyridin-6-yl)-1-oxoisoindolin-2-yl) piperidine-2,6-dione] | 1000 to 5000 | 10 to 100 | 60 to 80 | > 10000 | < 20
Cc1cc(-c2ccc3c(c2)CN(C2CCC(=O)NC2=O)C3=O)nc2c1CCN2CCO (stereo not shown) [Example 132, 3-(5-(1-(2-hydroxyethyl)-4-methyl-2,3-dihydro-1H-pyrrolo[2,3-b]pyridin-6-yl)-1-oxoisoindolin-2-yl) piperidine-2,6-dione] | 5000 to 10000 | 10 to 100 | 40 to 60 | > 10000 | < 20
N#CCn1ccc2c(CN3CCCC3)cc(-c3ccc4c(c3)CN(C3CCC(=O)NC3=O)C4=O)nc21 (stereo not shown) [Example 133, 2-(6-(2-(2,6-dioxopiperidin-3-yl)-1-oxoisoindolin-5-yl)-4-(pyrrolidin-1-ylmethyl)-1H-pyrrolo[2,3-b]pyridin-1-yl) acetonitrile] | 100 to 500 | 1 to 10 | 60 to 80 | > 10000 | < 20
O=C1CCC(N2Cc3cc(-c4cc(CN5CCCC5)c5ccn(-c6ccccc6)c5n4)ccc3C2=O)C(=O)N1 (stereo not shown) [Example 139, 3-(1-oxo-5-(1-phenyl-4-(pyrrolidin-1-ylmethyl)-1H-pyrrolo[2,3-b]pyridin-6-yl)isoindolin-2-yl) piperidine-2,6-dione] | 500 to 1000 | 1 to 10 | 60 to 80 | 10 to 100 | 20 to 40
CC(C)Cn1ccc2c(CN3CCCC3)cc(-c3ccc4c(c3)CN(C3CCC(=O)NC3=O)C4=O)nc21 (stereo not shown) [Example 140, 3-(5-(1-isobutyl-4-(pyrrolidin-1-ylmethyl)-1H-pyrrolo[2,3-b]pyridin-6-yl)-1-oxoisoindolin-2-yl) piperidine-2,6-dione] | 100 to 500 | < 1 | 20 to 40 | > 10000 | < 20
O=C1CCC(N2Cc3cc(-c4cc(CN5CCC(F)C5)c5ccn(C6CC6)c5n4)ccc3C2=O)C(=O)N1 (stereo not shown) [Example 141, 3-(5-(1-cyclopropyl-4-((3-fluoropyrrolidin-1-yl)methyl)-1H-pyrrolo[2,3-b]pyridin-6-yl)-1-oxoisoindolin-2-yl) piperidine-2,6-dione] | 1000 to 5000 | 1 to 10 | > 80 | > 10000 | < 20
O=C1CCC(N2Cc3cc(-c4cc(CN5CCC(O)C5)c5ccn(C6CC6)c5n4)ccc3C2=O)C(=O)N1 (stereo not shown) [Example 142, 3-(5-(1-cyclopropyl-4-((3-hydroxypyrrolidin-1-yl)methyl)-1H-pyrrolo[2,3-b]pyridin-6-yl)-1-oxoisoindolin-2-yl) piperidine-2,6-dione] | 500 to 1000 | 1 to 10 | > 80 | > 10000 | < 20
O=C1CCC(N2Cc3cc(-c4cc(CN5CC(F)C5)c5ccn(C6CC6)c5n4)ccc3C2=O)C(=O)N1 (stereo not shown) [Example 143, 3-(5-(1-cyclopropyl-4-((3-fluoroazetidin-1-yl)methyl)-1H-pyrrolo[2,3-b]pyridin-6-yl)-1-oxoisoindolin-2-yl) piperidine-2,6-dione] | 1000 to 5000 | 1 to 10 | > 80 | > 10000 | < 20
O=C1CCC(N2Cc3cc(-c4cc(CN5CCC(CO)CC5)c5ccn(C6CC6)c5n4)ccc3C2=O)C(=O)N1 (stereo not shown) [Example 144, 3-(5-(1-cyclopropyl-4-((4-(hydroxymethyl)piperidin-1-yl)methyl)-1H-pyrrolo[2,3-b]pyridin-6-yl)-1-oxoisoindolin-2-yl) piperidine-2,6-dione] | 100 to 500 | 1 to 10 | > 80 | 10 to 100 | 20 to 40
O=C1CCC(N2Cc3cc(-c4cc(CN5CCCC5)c5nc[nH]c5n4)ccc3C2=O)C(=O)N1 (stereo not shown) [Example 145, 3-(1-oxo-5-(7-(pyrrolidin-1-ylmethyl)-3H-imidazo[4,5-b]pyridin-5-yl)isoindolin-2-yl) piperidine-2,6-dione] | 1000 to 5000 | 100 to 1000 | < 20 | > 10000 | < 20
CC(C)C1CCN(Cc2cc(-c3ccc4c(c3)CN(C3CCC(=O)NC3=O)C4=O)nc3[nH]ccc23)C1 (stereo not shown) [Example 146] | 100 to 500 | 1 to 10 | > 80 | 1 to 10 | 40 to 60
